According to ChEMBL document CHEMBL1128081, “Synthesis of dibenzo[a,d]cycloheptanes as cytokine biosynthesis inhibitors” (Bioorg Med Chem Lett, 1995):

Columns and labels:
Assay type in all cases: functional
[1] = test system: Mus musculus; test: Ability to inhibit the accumulation of cytokine interleukin-6 (IL-6) in the serum of […] parvum-primed mice by po administration
[2] = test system: Mus musculus; test: Ability to inhibit the accumulation of inflammatory cytokine interleukin-1 alpha (IL-1 alpha) in the serum of […] parvum-primed mice by po administration
[3] = test system: Mus musculus; test: Ability to inhibit the accumulation of tumor necrosis factor-alpha (TNF-alpha) in the serum of […] parvum-primed mice by po administration
[4] = test system: Mus musculus; test: Ability to inhibit the accumulation of gamma-interferon (gamma-IFN) in the serum of […] parvum-primed mice by po administration
[5] = species on record: Mus musculus; test: In vitro inhibitory activity was measured for the release of tumor necrosis factor-alpha (TNF-alpha) from a murine monocytic cell line

| SMILES | ED50 [1] [mg/kg] | ED50 [2] [mg/kg] | ED50 [3] [mg/kg] | ED50 [4] [mg/kg] | IC50 [5] [nM] |
| --- | --- | --- | --- | --- | --- |
| CCCC1(CCCN(C)C)c2ccccc2CCc2ccccc21 | 15.8 | 8.7 | > 25 | 5.9 |  |
| CCCCCCC1(CCN(C)C)c2ccccc2CCc2ccccc21 | > 25 | > 25 | > 25 | > 25 |  |
| CCOC1(CCN(C)C)c2ccccc2C=Cc2ccccc21 | > 25 | > 6.25 | > 25 | 13.2 |  |
| CCOCC1(CCNC)c2ccccc2CCc2ccccc21 | > 25 | > 25 | > 25 | > 25 |  |
| CCOC1(CCN(C)C(C)=O)c2ccccc2CCc2ccccc21 | > 25 | > 25 | > 25 | > 25 |  |
| CCCC1(CCN(C)C)c2ccccc2CCc2ccccc21 | 23.3 | 6.25 |  | 10.8 |  |
| CCOC1(CCN2CCCC2)c2ccccc2CCc2ccccc21 |  | 11.1 | 16.1 | 11.3 |  |
| CCOCC1(CCN(C)C)c2ccccc2CCc2ccccc21 | > 25 | 18.1 | 19.6 | 13.5 |  |
| CCOC1(CCN(C)C)c2ccccc2CCc2cccnc21 (configuration not stated) | > 25 | > 25 | > 25 | > 25 |  |
| CN(C)CCC1(O)c2ccccc2CCc2ccccc21 | > 25 | > 25 | > 25 | > 25 |  |
| CCOC1(CCN(C)C)c2ccccc2CCc2ccccc21 | 8 | 2.4 | 17.6 | 1.3 | 1700 |
| CCCC1(CN(C)C)c2ccccc2CCc2ccccc21 | 25 | > 25 | > 25 | 3.9 |  |
